In patent US6420563B1, “Small molecule modulators of G protein-coupled receptor six” (Arena Pharmaceuticals, Inc., priority 1998, dated 2002):
Where two headings read alike, the source gives them in different places.

Key:
GPR6 = target: T1, GPR6 (Homo sapiens, UniProt P46095); assay: membrane-based cyclic AMP confirmation assay (Example 4C); type: biochemical; conditions: mean +/- standard deviation (number of assays in brackets); read-out: IC50 Values Cyclic AMP Assay Example 4C
T1 construct: expressed in transfected cells; 293 cells are used elsewhere
T1 sequence (P46095 whole entry): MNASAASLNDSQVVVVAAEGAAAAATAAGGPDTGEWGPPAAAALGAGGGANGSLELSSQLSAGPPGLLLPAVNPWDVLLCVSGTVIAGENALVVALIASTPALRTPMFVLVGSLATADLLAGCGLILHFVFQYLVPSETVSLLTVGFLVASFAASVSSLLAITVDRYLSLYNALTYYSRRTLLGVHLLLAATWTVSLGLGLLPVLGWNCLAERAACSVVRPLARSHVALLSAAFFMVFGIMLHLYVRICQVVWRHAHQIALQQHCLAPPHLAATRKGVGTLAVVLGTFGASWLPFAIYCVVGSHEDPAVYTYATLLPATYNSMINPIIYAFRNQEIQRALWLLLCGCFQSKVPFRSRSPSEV
From the text: Using an independent assay approach to provide confirmation of a directly identified candidate compound as set forth above, it is preferred that a confirmation assay then be utilized. In this case, the preferred confirmation assay is membrane-based cyclic AMP (cAMP) assay.
A modified Flash Plate™ Adenylyl Cyclase kit (New England Nuclear; Cat. No. SMP004A) was utilized for confirmation of candidate compounds directly identified as inverse agonists and agonists to endogenous, constitutively activated orphan GPCRs in accordance with the following protocol.
Transfected stable cells were harvested approximately three days after transfection. Membranes were prepared by homogenization of suspended cells in buffer containing 20 mM HEPES, pH 7.4 and 10 mM MgCl2. Homogenization was performed on ice using a Brinkman Polytron™ for approximately 10 seconds. The resulting homogenate was centrifuged at 20,000 rpm for 20 minutes at 4° C. The resulting pellet was then resuspended in buffer containing 20 mM HEPES, pH 7.4 and 0.1 mM EDTA, homogenized for 10 seconds, followed by centrifugation at 20,000 rpm for 20 minutes at 4° C. The resulting pellet can be stored at −80° C. until utilized. On the day of direct identification screening, the membrane pellet is slowly thawed at room temperature, resuspended in buffer containing 20 mM HEPES, pH 7.4, 100 mM NaCl and 10 mM MgCL2, to yield a final protein concentration of 0.60 mg/ml (the resuspended membranes are placed on ice until use).
Candidate compounds identified as per above (if frozen, thawed at room temperature) were added to plate wells (3 μl/well; 12 μM final assay concentration), together with 50 μl Membrane Protein (30 μg/well) and 50 μl of Assay Buffer. This admixture was then incubated for 30 minutes at room temperature, with gentle shaking.
Following the incubation, 100 μl of Detection Buffer was added to each well, followed by incubation for 2-20 hours. Plates were subsequently aspirated and then counted in a Wallac MicroBeta™ plate reader using “Prot. #31” (as per manufacturer instructions).

[1] = Food/water intake and body weight in 24-hour food deprived rats, oral gavage (PO); type: in vivo, rat
Method: Based upon the in vivo data developed, oral bioavailability of compound ARE112 was determined. The compound was administered by oral gavage at doses ranging from 6.75 to 54 mg/kg. The data presented in FIGS. 9A and 9B support the conclusion that oral administration of ARE112 also decreases food intake in both food-deprived and non-food deprived rats. […] In FIG. 9A, rats were deprived 24 hours prior to oral administration of the compound. In this assay, the vehicle-treated rats at 2.5 hours consumed […] of food while injected rats; particularly rats administered with 27 and 54 mg/kg of ARE 112, ate about 6 and 4 grams, respectively. […] (See, FIG. 9A).
Several other GPR6 inverse agonists were also assessed under 24-hour food deprived conditions, with PO administration. The analogs listed below were tested at 200 μmol/kg, which is equivalent to 54 mg/kg. In addition, ARE114 was also assessed at […]. Data are summarized below in Table C:
In a second assay, tested under the same conditions, several other analogs were assessed at 100 μmol/kg.
In FIG. 10, rats were deprived 24 hours prior to oral administration of the compound. In this assay, analogs ARE130, ARE135, ARE136, and ARE140, were administered at a dose of 100 μmol/kg. Three analogs, particularly, ARE130, ARE136 and ARE140 evidenced a slow intake of food (e.g., about 1 to 1.5 grams every two hours) over an eight hour period post-administration; while the vehicle rat consumed about 2 to 2.5 grams food every two hours. Similar to the vehicle rat, analog ARE135, an opened ring structure, evidenced that over an eight hour period post-administration the rats increasingly consumed about 2.5 grams every two hours. (See, FIG. 10A). Furthermore, the body weight of the vehicle rat and administered rats with analog ARE135 gained about 19.5 grams. On the other hand, the closed ring structures evidenced a decrease in body weight gain as follows: ARE112-6 grams, ARE130-9 grams, ARE136-11 grams and ARE140-14 grams. See, FIG. 10C.

GPR6:Gsα-Fusion Protein = target: T2, GPR6:Gsα-Fusion Protein (Homo sapiens, UniProt P46095); assay: [35S]GTPγS membrane binding assay (Example 4A); type: biochemical
T2 construct: expressed in transfected cells
T2 sequence (P46095 with tags, fused parts or gaps): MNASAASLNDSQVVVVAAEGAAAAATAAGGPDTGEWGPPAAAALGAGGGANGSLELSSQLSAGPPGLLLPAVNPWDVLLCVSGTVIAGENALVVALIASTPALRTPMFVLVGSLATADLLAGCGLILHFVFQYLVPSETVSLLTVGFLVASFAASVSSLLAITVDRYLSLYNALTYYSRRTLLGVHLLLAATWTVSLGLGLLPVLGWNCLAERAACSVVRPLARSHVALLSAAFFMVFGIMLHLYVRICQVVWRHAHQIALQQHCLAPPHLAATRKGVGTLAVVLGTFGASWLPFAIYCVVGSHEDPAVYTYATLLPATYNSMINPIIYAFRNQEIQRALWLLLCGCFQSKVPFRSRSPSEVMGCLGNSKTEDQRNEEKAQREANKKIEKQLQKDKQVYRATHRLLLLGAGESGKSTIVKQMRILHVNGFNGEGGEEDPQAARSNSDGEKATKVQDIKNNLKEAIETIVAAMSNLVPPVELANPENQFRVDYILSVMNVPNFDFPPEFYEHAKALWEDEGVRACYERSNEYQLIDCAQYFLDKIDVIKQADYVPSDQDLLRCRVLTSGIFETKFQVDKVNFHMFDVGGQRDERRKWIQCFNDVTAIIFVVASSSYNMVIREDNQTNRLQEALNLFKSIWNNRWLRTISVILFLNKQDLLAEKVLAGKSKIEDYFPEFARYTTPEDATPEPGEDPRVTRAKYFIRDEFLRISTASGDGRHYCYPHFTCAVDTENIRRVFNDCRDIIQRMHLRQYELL
Method: The assay plates were then centrifuged at 400 rpm for 15 minutes at room temperature and then subsequently aspirated and counted in a scintillation counter.
Membranes expressing the GPCR6:Gsα-Fusion Protein (see Example 2) and for use in the direct identification of candidate compounds as inverse agonists, agonists or partial agonists were prepared as follows:
All materials were kept on ice throughout the procedure. Firstly, the media was aspirated from a confluent monolayer of cells, followed by rinse with 10 ml cold PBS, followed by aspiration. Thereafter, 5 ml of membrane Scrape Buffer was added to scrape cells; this was followed by transfer of cellular extract into 50 ml centrifuge tubes (centrifuged at 20,000 rpm for 17 minutes at 4° C.). Thereafter, the supernatant was aspirated and the pellet was resuspended in 30 ml Membrane Wash Buffer followed by centrifuge at 20,000 rpm for 17 minutes at 4° C. The supernatant was then aspirated and the pellet resuspended in Binding Buffer. This was then homogenized using a Brinkman polytron™ homogenizer (15-20 second bursts until the all material was in suspension). This is referred to herein as “Membrane Protein”.
Candidate compounds (Tripos, Inc., St. Louis, Mo.) were received in 96-well plates (these can be frozen at −80° C.). Membrane Protein (or membranes with expression vector excluding the GPR6:Gsα-Fusion Protein, as control), were homogenized briefly until in suspension. Protein concentration was then determined using the Bradford Protein Assay set forth above. […] Thereafter, 100 ul GDP Buffer was added to each well of a Wallac Scintistrip™ (Wallac). A 5 ul pin-tool was then used to transfer 5 ul of a candidate compound into such well (i.e., 5 ul in total assay volume of 200 ul is a 1:40 ratio such that the final screening concentration of the candidate compound is 10 uM). Again, to avoid contamination, after each transfer step the pin tool was rinsed in three reservoirs comprising water (1×), ethanol (1×) and water (2×)—excess liquid should be shaken from the tool after each rinse and dried with paper towels and kimwipes™. Thereafter, 50 ul of Membrane Protein was added to each well (a control well comprising membranes without the GPCR Fusion Protein is also utilized), and pre-incubated for 5-10 minutes at room temperature (the plates were covered with foil in that the candidate compounds obtained from Tripos are light sensitive). Thereafter, 50 ul of [^35S]GTPγS (0.6 nM) in Binding Buffer was added to each well, followed by incubation on a shaker for 60 minutes at room temperature (again, in this example, plates were covered with foil). The assay was then stopped by spinning of the plates at 4000 RPM for 15 minutes at 22° C. The plates were then aspirated with an 8 channel manifold and sealed with plastic plate covers. The plates were then read on a Wallac 1450 using setting “Prot. #37” (as per manufacturer instructions).
The initial or “primary” screen designed to directly identify, e.g., human GPR6 receptor inverse agonists, consisted of the membrane-based GTPγS binding assay of Example 4A utilizing membranes prepared from 293 stable cells. Candidate compounds directly identified as inhibiting receptor-mediated increases in GTPγS as set forth below were considered active “leads”.
It is preferred that following such direct identification, IC50 (inverse agonist) or EC50 (agonist) values be determined; those having ordinary skill in the art are credited with utilizing IC50 and EC50 assay protocols of choice. FIG. 4 provides a representative IC50 curve for compound ARE112 using the assay protocol of Example 4A.

[2] = 100 μmol/kg PO, second assay, Table D, vehicle 19.25
[3] = mean +/- standard deviation (number of assays in brackets), read-out: IC50 Values GTP Assay Example 4A

IC50 (GPR6) [nM] | IC50 (GPR6:Gsα-Fusion Protein; mean +/- SD (number of assays), read-out: IC50 Values (Table E, GTP Assay of Example 4A)) [nM] | IC50 (GPR6:Gsα-Fusion Protein; [3]) [nM] | SMILES | Cumulative Food Intake (g) (8 hr post administration) ([1]; 100 μmol/kg PO, second assay, Table D, vehicle 14.0) | Body Weight Gain (g) (6 hr post administration) [1, 2] | Cumulative Water Intake (g) (6 hr post administration) [1, 2] | water drunk (FIG. 10B) ([1]; 100 μmol/kg oral, comparable to vehicle) | body weight gain (FIG. 10C) ([1]; 100 μmol/kg oral, vehicle about 19.5 grams) [grams] | Cumulative Food Intake (g) (8 hr post administration) ([1]; 200 μmol/kg PO, Table C, vehicle 14.5) | Body Weight Gain (g) (6 hr post administration) ([1]; 200 μmol/kg PO, Table C, vehicle 20.3) | Cumulative Water Intake (g) (6 hr post administration) ([1]; 200 μmol/kg PO, Table C, vehicle 22.9)
190 | 170 | 130 | O=C(N=C1SSC2=NCCN21)c1cc2ccccc2s1 [ARE140, N-(5,6-dihydro-3H-imidazo[2,1-c]-1,2,4-dithiazol-3-ylidene)-benzothiophen-2-carboxamide] | 9.6 | 14.6 | 20.0 | about 19 grams | 14 |  |  | 
200 |  | 370 | O=C(N=C1SSC2=NCCN21)c1ccc(F)cc1 [ARE128, N-(5,6-dihydro-3H-imidazo[2,1-c]-1,2,4-dithiazol-3-ylidene)-4-fluorobenzamide] |  |  |  |  |  | 7.93 | 4.03 | 8.5
